In assay [1] the test system is MCF-7 (human breast cancer). Put plainly: MTT cell viability assay, MCF-7. In kind it is cell-based. In general terms: Tetrazolium dyes change colour on reduction, which living cells bring about.
Description: (§1) HEPG2 (ATCC-HB-8065), MCF-7 (ATCC-CRL-3435), PC-3 (ATCC-CRL-1435), and HEK-293 (ATCC-CRL-1573) cells were purchased from American Type Culture Collection (ATCC). Human cancer cells and embryonic kidney cells were maintained in Roswell Park Memorial Institute (RPMI) media supplemented with 10% fetal bovine serum and 1% penicillin–streptomycin solution in a 37 °C incubator with 5% CO2.
(§2) The cell viability was assessed by using an MTT assay. MTT was purchased from Sigma and prepared in phosphate-buffered saline (5 mM). […] After incubation, 20 μL of MTT solution was added to each well and incubated at 37 °C for an additional 4h. Finally, the MTT solution was removed, and 200 μL of DMSO was added to each well. The absorbance was measured at 590 nm by using a spectrometer (Tecan). The IC50 values were calculated from the MTT viability data using the software CalcuSyn (Biosoft).
For assay [2], the system named is HEPG2 (hepatocellular carcinoma). In words: MTT cell viability assay, HEPG2. Format: cell-based, human.
Description: as §1, §2
Assay [3] deals with PC-3 (human prostate cancer). Put plainly: MTT cell viability assay, PC-3. In kind it is cell-based. Particulars: 72 h.
Description: as §1, §2
The subject of assay [4] is HEK-293 (human embryonic kidney). Put plainly: MTT cell viability assay, HEK-293. In kind it is cell-based.
Description: as §1, §2

Here are results for 4 compounds from paper PMC11064044, “Synthesis and Characterization of Piano-Stool Ruthenium(II)–Arene Complexes of Isatin Schiff Bases: Cytotoxicity and DNA Intercalation” (ACS Omega, 2024).

`CCCCN1C(=O)/C(=N/c2c(C)cc(C)cc2C)c2ccccc21` [3c]: the IC50 (commonly the midpoint of a concentration-inhibition curve) in assay [1] (Homo sapiens, MCF7, 72 h) was 27.2 ± 2.4 µM; in assay [2] (Homo sapiens, HepG2, 72 h), 3.9 ± 0.3 µM; in assay [3] (Homo sapiens) it was 58.4 ± 2 µM; in assay [4] (Homo sapiens, HEK293, 72 h), 26.9 ± 1.6 µM.

As to `N.N.[Cl][Pt][Cl]` [cisplatin, reference compound], the IC50 was determined as 20.8 ± 2.3 µM in assay [1] (72 h), 22.2 ± 0.5 µM in assay [2] (72 h), 18.5 ± 0.7 µM in assay [3] and 10.7 ± 0.8 µM in assay [4] (72 h).

Turning to `CCCCN1C(=O)/C(=N/c2ccccc2)c2ccccc21` [3b], the IC50 in assay [1] (Homo sapiens, MCF7, 72 h) worked out at 52.6 ± 3.1 µM; in assay [2] (Homo sapiens, HepG2, 72 h) it was 43 ± 1.8 µM; in assay [3] (Homo sapiens) it was 58.1 ± 3.3 µM; in assay [4] (Homo sapiens, HEK293, 72 h) it was 61.9 ± 0.6 µM.

On to `CCCCN1C(=O)C(=O)c2ccccc21` [compound 2, N-butylisatin], for which the IC50 in assay [1] (Homo sapiens, MCF7, 72 h) is 100 ± 2.4 µM; in assay [2] (Homo sapiens, HepG2, 72 h), 226.5 ± 1.5 µM; in assay [3] (Homo sapiens) it was 58.2 ± 3.2 µM; in assay [4] (Homo sapiens, HEK293, 72 h) it was 127 ± 2.8 µM.
